US5262520A, “Peptides and antibodies that inhibit integrin-ligand binding” (The Scripps Research Institute, priority 1990, dated 1993)
Where no end group is shown, it is not given here.

Tests used:
[1] = target: T1, ^125 I-fibrinogen with immobilized p1 peptide (Homo sapiens, UniProt P08514); experiment: Inhibition of 125I-fibrinogen binding to immobilized p1 peptide; details: for inhibition of fibrinogen binding to immobilized p1 (in words): text summary of Table 7
T1 construct: for GPIIb from residue 296; made in house; no expression host
Procedure: Polypeptides p1, p1', and controls were immobilized on 96-well Immulon-2 microtiter plates (Dynatech Laboratories, VA). The peptides were added to the plates and maintained at 4 C for 24 hours after which the plates were washed with Hepes-Tyrode's buffer (pH 7.4) containing Tween-20. The plates were post-coated with 3% BSA for 1 hr. at 37° C. and then washed again. ^125 I-fibrinogen (50 μL at 50 nM) was allowed to bind to the peptide-coated wells for 24 hours at 22° C. which were then extensively washed and counted for bound radioactivity.
Cation dependence of binding was established in the presence of EDTA (5 mM). Two gamma-chain peptides of fibrinogen (HHLGGAKQAGDV and KYGGHHLGGAHQAGDV) inhibited the interaction of fibrinogen with immobilized pl. […] These observations are consistent with the hypothesis that RGD gamma-chain peptides interact with the same sites in GPIIb-IIIa.

[2] = target: T2, GPIIb (Homo sapiens, UniProt P08514); experiment: Chemical crosslinking of 125I-K16 to GPIIb on platelets; format: binding
T2 construct: endogenous in cells; host or cells: washed human platelets from fresh blood
Description: Platelets were isolated from fresh human blood collected into acid/citrate/dextrose by differential centrifugation followed by gel filtration on Sepharose 2B in divalent ion-free Tyrode's buffer, pH 7.3, containing 0.1% bovine serum albumin. See, Marguerie et al., J. Biol. Chem., 225:154-161 (1980).
Platelet binding of K16 followed the protocols previously described for measuring platelet interactions with adhesive proteins and with this and other peptides. See, Ginsberg et al., J. Biol. Chem., 260:3931-3936 (1985); Lam et al., Fed. Proc. Fed. Am. Soc. Exp. Biol., 44:1126 (1985); and Marguerie et al., supra. Briefly, platelets were suspended at 4×10^8 /ml in divalent ion-free Tyrode's albumin buffer. Unless otherwise specified, Ca^2+ was added to a final concentration of 1 mM. The platelet stimulus used was 0.5 unit/ml alpha-thrombin. In assays in which fibrinogen and thrombin were present, 30 nM D-phenylalanyl-L-prolyl-arginine ketone (Calbiochem, La Jolla, Ca.) was added to the platelet suspension 5 minutes after addition of thrombin and 5 minutes before addition of fibrinogen. The radiolabeled peptide was then added to […] stimulated or nonstimulated platelets at a concentration of 30 μM, and binding proceeded for 45 min at 22° C. The selected cross-linking agent was then added. The cross-linking agent used in this study, bis(sulfosuccinimidyl) suberate (BS^3), purchased from Pierce Chemical Co. was dissolved in PBS immediately prior to use and admixed with the platelets to a final concentration of 0.2 mM. The cross-linking reactions were terminated after 10 min at 22° C. by addition of 10 mM Tris, pH 7.0.
The cell-bound ligand was recovered by centrifugation through 20% sucrose, and the cells were extracted in PBS containing 1% Nonidet P40 and 10 mM N-ethylmaleimide (Sigma). Extrated proteins were precipitated with 10% trichloroacetic acid, and the pellet obtained after centriguation was washed three times with cold 85% ethanol. The cross-linked samples were analyzed by electrophoresis (SDS-PAGE) on polyacrylamide vertical slab gels in the buffer system of Laemmli, Nature, 227 […] (1970). For disulfide bond reduction, the samples were treated with 5% 2-mercaptoethanol. Gels were dried and autoradiograms were developed with Kodak X-Omat AR films. Molecular weights were estimated on the basis of electrophoretic mobility relative to standards obtained from Diversified Biotech (MA).
Cross-linked samples were immunoprecipitated using a monoclonal antibody designated PMI-1, which recognizes the heavy chain of GPIIb. Loftus et al., Proc. Natl. Acad. Sci. USA. 84:7114 (1987). […]

[3] = GPIIb:K16 complex, gel under reducing conditions, excised and counted

Q: For `N=C(N)NCCC[C@H](N)C(=O)NCC(=O)N[C@@H](CC(=O)O)C(=O)N[C@@H](CO)C(=O)O` [RGDS], which inhibition at 200 µM ([1]; inhibitor 200 μM) is on record?
A: 52 ± 15%

Q: `O=C(O)CN(CCN(CC(=O)O)CC(=O)O)CC(=O)O` [EDTA] was tested. Which “% Inhibition of ^125 I-fibrinogen binding to p1” value (shortened to “% Inhibition”) ([1]; inhibitor 5000 μM) did it give?
A: 90 ± 8%

Q: GRGESP [GRGESP] was tested. Which inhibition at 200 µM ([1]; inhibitor 200 μM) did it give?
A: 16 ± 7%

Q: For HHLGGAKQAGDV [HHLGGAKQAGDV], which inhibition at 200 µM ([1]; inhibitor 200 μM) is on record?
A: 57 ± 11%

Q: For “KYGGHHLGGAKQAGDV [K16, peptide derived from fibrinogen gamma chain]”, which “% Inhibition” value ([1]; inhibitor 200 μM) is on record?
A: 54 ± 12%

Q: And the “inhibition of fibrinogen binding to immobilized p1 (in words)” value [1]?
A: inhibited

Q: And the “crosslinking of the radiolabeled peptide to the cells” value ([2]; 50-fold excess of nonlabeled K16, thrombin-stimulated platelets, FIG. 2A)?
A: abolished the crosslinking

Q: And the “radioactivity in the position of light chain of GPIIb” value [2, 3]?
A: < 2%

Q: What about the “radioactivity in the position of the heavy chain of GPIIb” value [2, 3] of the same compound?
A: 98%

Q: What about the “increase of K16 crosslinking to GPIIb” value ([2]; thrombin stimulation relative to nonactivated platelets, 4 experiments) of the same compound?
A: 12 fold

Q: Which inhibition at 200 µM ([1]; inhibitor 200 μM) does the source give for YVTAGRGDSPASSK [YVTAGRGDSPASSK] here?
A: 61 ± 16%

Q: Which “% Inhibition” value ([1]; inhibitor 2 μM) does the source give for Fibrinogen here?
A: 82 ± 1.2%

Q: For Albumin, which “% Inhibition” value ([1]; inhibitor 2 μM) is on record?
A: 12 ± 4%

Q: What about the “inhibition of fibrinogen binding to immobilized p1 (in words)” value [1] of the same compound?
A: minimal inhibition
